Measured values from ChEMBL document CHEMBL3856276, “Design, Synthesis, and Biological Evaluation of Novel Tetrahydroprotoberberine Derivatives (THPBs) as Selective α1A-Adrenoceptor Antagonists” (J Med Chem, 2016).

Assays:
Mus musculus [1] = experiment: Acute toxicity in Kunming mouse assessed as mortality at 500 mg/kg, po administered as single dose measured over 7 days; format: organism-based; conditions: in vivo, 168 h
[2] = Tmax in rat at 20 mg/kg, ig via oral gavage; format: ADME, organism-based; conditions: in vivo
[3] = target: T1, Alpha-1A adrenergic receptor (Homo sapiens, UniProt P35348)
T1 sequence (P35348 whole entry): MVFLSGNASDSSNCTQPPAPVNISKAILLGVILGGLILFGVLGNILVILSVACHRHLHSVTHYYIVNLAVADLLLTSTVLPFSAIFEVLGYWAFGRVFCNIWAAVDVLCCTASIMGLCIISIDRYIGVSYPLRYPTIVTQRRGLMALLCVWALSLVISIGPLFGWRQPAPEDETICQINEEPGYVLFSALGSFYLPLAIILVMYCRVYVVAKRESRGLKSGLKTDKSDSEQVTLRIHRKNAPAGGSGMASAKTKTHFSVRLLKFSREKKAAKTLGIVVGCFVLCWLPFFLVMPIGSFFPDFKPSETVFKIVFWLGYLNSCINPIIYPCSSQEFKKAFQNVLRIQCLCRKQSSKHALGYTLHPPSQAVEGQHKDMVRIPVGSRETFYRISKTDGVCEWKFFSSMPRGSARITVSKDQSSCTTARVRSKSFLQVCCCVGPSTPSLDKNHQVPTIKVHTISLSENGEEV
Description: Antagonist activity at human full-length N-terminal SNAP-tagged alpha1A adrenoceptor expressed in HEK293 cells assessed as inhibition of agonist-induced calcium mobilization preincubated for 10 mins followed by agonist addition by fluo-4 AM dye-based assay

[4] = target: T2, Alpha-1D adrenergic receptor (Homo sapiens, UniProt P25100)
T2 sequence (P25100 whole entry): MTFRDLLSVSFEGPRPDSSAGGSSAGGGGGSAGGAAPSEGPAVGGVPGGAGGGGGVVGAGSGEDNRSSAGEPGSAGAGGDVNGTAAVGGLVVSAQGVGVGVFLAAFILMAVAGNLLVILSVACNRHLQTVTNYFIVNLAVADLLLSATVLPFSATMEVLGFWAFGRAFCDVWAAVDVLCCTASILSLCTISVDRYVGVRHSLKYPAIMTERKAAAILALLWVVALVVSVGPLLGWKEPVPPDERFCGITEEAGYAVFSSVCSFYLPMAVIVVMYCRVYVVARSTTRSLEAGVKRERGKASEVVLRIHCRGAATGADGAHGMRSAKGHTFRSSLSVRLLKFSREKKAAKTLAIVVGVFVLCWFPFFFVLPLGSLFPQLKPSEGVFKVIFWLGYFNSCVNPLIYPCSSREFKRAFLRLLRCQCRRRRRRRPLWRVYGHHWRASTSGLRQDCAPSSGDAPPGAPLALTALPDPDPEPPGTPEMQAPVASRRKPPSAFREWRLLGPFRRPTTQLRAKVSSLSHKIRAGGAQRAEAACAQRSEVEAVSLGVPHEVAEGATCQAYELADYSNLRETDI
Description: Antagonist activity at human full-length N-terminal SNAP-tagged alpha1D adrenoceptor expressed in HEK293 cells assessed as inhibition of agonist-induced calcium mobilization preincubated for 10 mins followed by agonist addition by fluo-4 AM dye-based assay

Mus musculus [5] = experiment: Acute toxicity in Kunming mouse assessed as effect on behavior at 500 mg/kg, po administered as single dose measured over 7 days; format: organism-based; conditions: in vivo, 168 h
[6] = target: T3, Alpha-1A adrenergic receptor (Rattus norvegicus, UniProt P43140); experiment: Antagonist activity at alpha1A adrenoceptor in Sprague-Dawley rat urethra assessed as inhibition of norepinephrine-induced smooth muscle contraction after 20 mins
T3 sequence (P43140 whole entry): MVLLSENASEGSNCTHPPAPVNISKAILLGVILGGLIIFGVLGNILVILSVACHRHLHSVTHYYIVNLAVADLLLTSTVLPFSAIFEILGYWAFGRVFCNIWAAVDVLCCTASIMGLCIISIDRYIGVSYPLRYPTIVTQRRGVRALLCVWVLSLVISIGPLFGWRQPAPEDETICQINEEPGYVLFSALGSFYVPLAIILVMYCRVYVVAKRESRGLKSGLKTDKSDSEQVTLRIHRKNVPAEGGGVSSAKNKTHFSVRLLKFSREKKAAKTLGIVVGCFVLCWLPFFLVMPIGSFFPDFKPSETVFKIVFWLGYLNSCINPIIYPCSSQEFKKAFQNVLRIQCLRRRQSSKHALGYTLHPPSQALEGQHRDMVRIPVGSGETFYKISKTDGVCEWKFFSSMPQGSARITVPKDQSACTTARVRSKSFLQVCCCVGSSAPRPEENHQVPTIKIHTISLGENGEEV

[7] = Cmax in rat at 10 mg/kg, iv; format: ADME, organism-based; set-up: dose 10 mg/kg, route intravenous; conditions: in vivo
[8] = Half life in rat at 10 mg/kg, iv; format: ADME, organism-based; conditions: in vivo
[9] = Apparent clearance in rat at 10 mg/kg, iv; format: ADME, organism-based; conditions: in vivo, read-out: CL(app) (converted)
[10] = AUC (0 to t) in rat at 20 mg/kg, ig via oral gavage; format: ADME, organism-based; conditions: in vivo
[11] = Tmax in rat at 10 mg/kg, iv; format: ADME, organism-based; conditions: in vivo
[12] = Half life in rat at 20 mg/kg, ig via oral gavage; format: ADME, organism-based; conditions: in vivo
[13] = target: T4, Alpha-1B adrenergic receptor (Homo sapiens, UniProt P35368)
T4 sequence (P35368 whole entry): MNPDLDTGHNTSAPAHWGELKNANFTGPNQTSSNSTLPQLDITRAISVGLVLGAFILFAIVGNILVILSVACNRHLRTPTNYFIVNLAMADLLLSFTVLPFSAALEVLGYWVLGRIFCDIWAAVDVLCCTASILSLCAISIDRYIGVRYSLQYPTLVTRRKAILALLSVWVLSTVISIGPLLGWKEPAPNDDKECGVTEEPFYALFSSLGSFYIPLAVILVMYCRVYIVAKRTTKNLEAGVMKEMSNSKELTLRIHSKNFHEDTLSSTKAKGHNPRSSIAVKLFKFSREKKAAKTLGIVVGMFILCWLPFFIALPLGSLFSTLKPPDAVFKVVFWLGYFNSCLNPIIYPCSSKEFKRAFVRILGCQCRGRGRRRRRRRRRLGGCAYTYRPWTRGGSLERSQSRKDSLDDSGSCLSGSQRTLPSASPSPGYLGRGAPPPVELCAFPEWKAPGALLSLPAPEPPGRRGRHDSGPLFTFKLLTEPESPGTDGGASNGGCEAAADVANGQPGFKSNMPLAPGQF
Description: Antagonist activity at human full-length N-terminal SNAP-tagged alpha1B adrenoceptor expressed in HEK293 cells assessed as inhibition of agonist-induced calcium mobilization preincubated for 10 mins followed by agonist addition by fluo-4 AM dye-based assay

[14] = target: T5, Alpha-1A adrenergic receptor (Homo sapiens) (UniProt P35348); experiment: Antagonist activity at human full-length N-terminal SNAP-tagged alpha1A adrenoceptor expressed in HEK293 cells assessed as inhibition of agonist-induced calcium mobilization at 10 uM preincubated for 10 mins followed by agonist addition by fluo-4 AM dye-based assay relative to control; format: functional, cell-based
T5 sequence (whole entry): T1 sequence (P35348 whole entry)

[15] = Selectivity ratio of IC50 for alpha1B adrenoceptor in Sprague-Dawley rat aorta to IC50 for alpha1A adrenoceptor in Sprague-Dawley rat urethra
[16] = AUC (0 to infinity) in rat at 20 mg/kg, ig via oral gavage; format: ADME, organism-based; conditions: in vivo
Rattus norvegicus = experiment: Inhibition of micturition frequency in po dosed Sprague-Dawley rat benign prostatic hyperplasia model administered 20 mins followed by distilled watering loading measured for 2 hrs; format: functional; conditions: read-out: MED
[17] = target: Voltage-gated inwardly rectifying potassium channel KCNH2 (Homo sapiens, UniProt Q12809); experiment: Inhibition of human ERG
Voltage-gated inwardly rectifying potassium channel KCNH2, sequence (Q12809 whole entry): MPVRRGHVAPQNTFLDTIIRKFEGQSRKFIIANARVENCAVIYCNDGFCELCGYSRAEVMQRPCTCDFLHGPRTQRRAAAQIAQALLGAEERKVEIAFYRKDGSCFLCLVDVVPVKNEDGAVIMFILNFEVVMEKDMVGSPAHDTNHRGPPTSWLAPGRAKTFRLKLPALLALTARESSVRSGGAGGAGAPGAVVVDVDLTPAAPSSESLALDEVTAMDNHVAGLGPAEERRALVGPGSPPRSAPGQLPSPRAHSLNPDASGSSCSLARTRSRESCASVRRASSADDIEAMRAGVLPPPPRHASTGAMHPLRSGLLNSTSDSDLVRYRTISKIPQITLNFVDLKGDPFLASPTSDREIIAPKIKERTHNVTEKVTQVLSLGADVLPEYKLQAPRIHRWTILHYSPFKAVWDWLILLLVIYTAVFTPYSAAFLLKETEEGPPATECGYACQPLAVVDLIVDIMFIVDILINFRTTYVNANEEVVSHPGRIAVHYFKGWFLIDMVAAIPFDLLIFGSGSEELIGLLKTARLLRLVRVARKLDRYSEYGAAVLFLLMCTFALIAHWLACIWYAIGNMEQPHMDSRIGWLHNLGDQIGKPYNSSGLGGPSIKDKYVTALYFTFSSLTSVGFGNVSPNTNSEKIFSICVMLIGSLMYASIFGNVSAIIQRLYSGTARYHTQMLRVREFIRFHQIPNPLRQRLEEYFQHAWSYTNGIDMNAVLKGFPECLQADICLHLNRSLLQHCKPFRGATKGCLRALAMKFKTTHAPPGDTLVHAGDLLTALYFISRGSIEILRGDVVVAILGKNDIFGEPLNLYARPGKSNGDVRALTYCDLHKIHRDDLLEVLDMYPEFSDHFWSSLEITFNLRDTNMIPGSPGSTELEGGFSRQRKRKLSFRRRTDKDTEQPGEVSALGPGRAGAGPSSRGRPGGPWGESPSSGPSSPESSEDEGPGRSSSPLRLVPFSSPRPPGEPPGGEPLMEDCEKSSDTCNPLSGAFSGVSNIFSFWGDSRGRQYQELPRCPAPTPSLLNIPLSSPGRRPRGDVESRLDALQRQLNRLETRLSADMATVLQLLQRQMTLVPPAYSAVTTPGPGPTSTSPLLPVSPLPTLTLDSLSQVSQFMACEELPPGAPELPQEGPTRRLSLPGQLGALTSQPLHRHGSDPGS

[18] = Cmax in rat at 20 mg/kg, ig via oral gavage; format: ADME, organism-based; conditions: in vivo
[19] = Oral bioavailability in rat at 20 mg/kg, ig via gavage; format: ADME, organism-based; conditions: in vivo

**Q.** What does the source list for `COc1ccc2[nH]c3c(c2c1)C[C@H]1c2cc4c(cc2CCN1C3)OCO4`?
**A.** Activity (Mus musculus [1]): Non-Toxic; Tmax [2]: 60 min; IC50 [3]: 12.8 nM; IC50 [4]: 251 nM; Activity (Mus musculus [5]): Non-Toxic; IC50 [6]: 0.5 nM; Cmax [7]: 855 ng/mL; half-life [8]: 58.8 min; clearance [9]: 96.5 mL/min/kg; AUC(0-t) [10]: 2270 ng·h/mL; Tmax [11]: 15 min; half-life [12]: 70.8 min; IC50 [13]: > 10000 nM; inhibition [14]: 100%; Ratio IC50 [15]: >2083; AUC(0-inf) [16]: 2280 ng·h/mL; minimal effective dose (Rattus norvegicus): 3 mg/kg; IC50 [17]: 13200 nM; Cmax [18]: 684 ng/mL; bioavailability [19]: 60.9%
